B1: IL-1: recombinant mouse interleukin-1β (Endogen) (protein, UniProt P10749 118-269, looked up)
Interleukin-1 beta: VPIRQLHYRLRDEQQKSLVLSDPYELKALHLNGQNINQQVIFSMSFVQGEPSNDKIPVALGLKGKNLYLSCVMKDGTPTLQLESVDPKQYPKKKMEKRFVFNKIEVKSKVEFESAEFPNWYISTSQAEHKPVFLGNNSGQDIIDFTMESVSS
B2: IL-18: recombinant mouse interleukin-18 (Biosource) (protein, UniProt P70380 36-192, looked up)
Interleukin-18: NFGRLHCTTAVIRNINDQVLFVDKRQPVFEDMTDIDQSASEPQTRLIIYMYKDSEVRGLAVTLSVKDSKMSTLSCKNKIISFEEMDPPENIDDIQSDLIFFQKRVPGHNKMEFESSLYEGHFLACQKEDDAFKLILKKKDENGDKSVMFTLTNLHQS

What was measured:
[1] = tested on: MAPK pathways, including ERK, JNK and p38; experiment: Immunoblotting for MAPK pathway phosphorylation (ERK1/2, JNK/c-jun, p38 substrate ATF2); format: cell-based, mouse; settings: BMMO, dendritic cells and RAW 264.7; within an hour of stimulation; oligonucleotides 1 μM; data not shown
Protocol: (§1) Bone marrow was harvested from female mice 6-12 weeks old of various genotypes (C57Bl/6, Balb/c; Charles River; or C3H/HeJ, Jackson Labs). Bone marrow cells were used fresh or were frozen in fetal calf serum (FCS; Summit) containing 10% dimethylsulfoxide and stored at −80° C. Bone-marrow macrophages (BMMO) were prepared as described in Current Protocols in Immunology, supra. Briefly, fresh or frozen bone marrow cells were cultured in RPMI, 10% heat inactivated (30 minutes, 56° C.) fetal calf serum (FCS), 2 mM L-glutamine, 100 μg/ml streptomycin, 100 units/ml penicillin, 50 μM β-mercaptoethanol and 100 U/ml recombinant macrophage colony stimulating factor (M-CSF; R&D Systems). After 24 hours, nonadherent cells were removed to a new dish, and culture continued for 7 days to produce a macrophage monolayer. Nonadherent BMDDCs were produced by culture in the same medium supplemented with GM-CSF (200 U/ml; Preprotech) rather than M-CSF. […]
Macrophages were differentiated from bone marrow cells of C57Bl/6 mice as described in Example 1 and then transferred to low serum medium lacking M-CSF for 4 hours. […] The positive result for ERK½ MAPK activation in RAW 264.7 cells and BMMO are in contrast to observations in another mouse macrophage cell line, J774, where ERK phosphorylation was not detected in CpG oligonucleotide-treated cells.

[2] = tested on: NF-κB; experiment: κB-Luc assay in RAW 264.7 macrophages; format: cell-based, mouse; settings: for κB-dependent luciferase expression: RAW 264.7 transfected with κB-Luc, IL-1 20 ng/ml, MPL 1 μg/ml, oligonucleotides 4 μM, normalized to untreated transfected cells
Protocol: RAW 264.7 cells were seeded into 6-well plates (Corning) at a density of 3×10^5 cells per well 24 hours prior to transfection. Plasmids used in transfection were pNF-κB-Luc (Clontech) and pCR3. V64-Met-Flag-MyD88lpr (kindly provided by Jurgen Tschopp; described in (Burns et al., J. Biol. Chem., 1998, 273, 12203-9). Total plasmid DNA concentration was normalized across all wells by addition of empty vector (pCMVKm2, Chiron). Cells were transfected with stated concentrations of DNA in Opti-MEM I (Gibco BRL) with […] of LipofectAMINE (Gibco BRL) per well according to manufacturer's instructions. Cells were incubated with the transfection mixture 3 hours at 37° C., then culture media was replaced and cells were allowed to recover overnight. The following day transfected cells were treated in culture media at 37° C., 5% CO2 with phosphorothioate oligonucleotides, MPL, LPS, or cytokines at indicated concentrations and times. Cells were washed once with cold phosphate buffered saline (PBS), and lysed with Reporter Lysis BufferJ (Promega). Luciferase activity in lysate supematants was determined using Microlite 2 plates (Dynex) and a ML 3000 Luminometer (Dynatech) all according to manufacture's instructions. For detection of FLAG-MyD88lpr expression, the insoluble pellet from transfected RAW 264.7 cells was resuspended in Triton lysis buffer and sonicated 10 minutes prior to addition of sample buffer and boiling. After separation and transfer to nitrocellulose, membranes were immunoblotted using FLAG M2 (Sigma) antibody.
To directly evaluate κB-dependent transcription induced by CpG oligonucleotide or MPL treatment, RAW 264.7 macrophage were transfected with an NF-κB-inducible reporter plasmid encoding luciferase under the control of multiple copies of the kappa light chain enhancer (κB-Luc) and the following day treated with adjuvants or cytokines. In particular, RAW 264.7 cells were transfected with a kB-driven luciferase reporter gene and treated 24 hours later with IL-1 (20 ng/ml), MPL (1 μg/ml), LPS (1 μg/ml) or a phosphorothioate CpG oligonucleotide (4 μM) for 6 hours. Luciferase activity in cell lysates was quantified by luminometry, and results were normalized to the luciferase signal in untreated transfected cells.
The effects of CpG oligonucleotide on κB-dependent luciferase expression were dose- and time-dependent (see FIGS. 1B and 1C). In regard to FIG. 1B, RAW 264.7 cells transiently transfected with a κB-luciferase reporter plasmid were treated 24 hours later with concentrations of phosphorothioate CpG oligonucleotide concentrations ranging from 0.25-8 μM, or a control oligonucleotide (4 μM) for 6 hours. Activation was detected at CpG oligonucleotide concentrations as low as 0.25 μM (FIG. 1B), but not at the lowest concentration tested (0.05 μM) (data not shown). Data shown in FIG. 1B are average luciferase activity in lysates from duplicate wells normalized to luciferase levels in lysates from untreated transfected wells on the same 6-well tissue culture plate. […] In regard to FIG. 1C, RAW 264.7 cells transiently transfected with a kB-Luc and treated 24 hours later with a CpG-containing oligonucleotide (4 μM; open circles), or LPS (1 μg/ml; filled circles). Results shown in FIG. 1C are average of duplicate wells normalized to untreated transfected wells.

[3] = tested on: MyD88; experiment: κB luciferase assay of NIH-3T3 cells transfected with MyD88 dominant-negative constructs; format: cell-based, murine; settings: FIG. 3A
Text: (§2) In another set of experiments, three MyD88 constructs lacking the ability to transduce signals were amplified by PCR, and placed under constitutive control of the CMV promoter (pCMV-FLAG vector, Sigma Aldrich). The first construct, MyD88lpr, contains a point mutation F56N in the death domain. The second construct, MyD88-ΔDD, lacks the death domain completely. The third construct, MyD88-THD, lacks both the death domain and the intermediate domain. The DNA was transfected into RAW 264.7 cells or murine embryonic NIH-3T3 cells using a cationic lipid reagent. A luciferase reporter plasmid was cotransfected. […] Cells were then stimulated with CpG oligonucleotides and several control cytokines. Luciferase expression was assayed on a luminometer to determine if the mutant MyD88 protein had affected CpG signaling. Restriction analysis and sequencing results confirmed the presence of the MyD88 constructs (data not shown). […] The MyD88 TIR domain alone was sufficient to block signaling.

[4] = tested on: CD86 expression on BMDDC; experiment: Flow cytometry of cell-surface CD86 on wild-type (Balb/c) BMDDC; format: cell-based, mouse; settings: overnight, oligonucleotides 5 μM, LPS 1 μg/ml, normalized to untreated
Protocol: as §1, with “monolayer.” for “monolayer. Nonadherent BMDDCs were produced by culture in the same medium supplemented with GM-CSF (200 U/ml; Preprotech) rather than M-CSF.”
(§3) BMDDC were treated overnight with adjuvants as indicated, washed, resuspended in cold PBS/2% FBS containing FcBlock (0.25 μg/10^6 cells; Pharmingen), and FITC- and PE-conjugated antibodies (1 μg/10^6 cells) were added 5 minutes later. Cells were incubate with antibodies on ice 30 minutes, washed, and analyzed by flow cytometry on a FACScan (Becton-Dickenson). […] Changes in CD86 expression are assessed based on geometric mean fluorescence of CD86-FITC staining of the live CD11c cells treated with adjuvants normalize to the geometric mean CD86-FITC fluorescence of untreated BMDDC cultures. […]

[5] = tested on: CD86 expression on TLR4 mutant BMDDC; experiment: Flow cytometry of cell-surface CD86 on TLR4 mutant (C3H/HeJ) BMDDC; format: cell-based, mouse; settings: overnight, oligonucleotide 5 μM, LPS 1 μg/ml, normalized to untreated
Protocol: as §1, with “monolayer.” for “monolayer. Nonadherent BMDDCs were produced by culture in the same medium supplemented with GM-CSF (200 U/ml; Preprotech) rather than M-CSF.”
as §3

[6] = tested on: ERK; settings: J774 mouse macrophage cell line; cited from earlier work
[7] = tested on: IκBα; experiment: Immunoblotting for phosphorylated and total IκBα in RAW 264.7 cells; format: cell-based, mouse; settings: 4 μM
Protocol: Following stimulation, BMMO or RAW 264.7 cells were lysed in 1% Triton X-100, 50 mM Tris, 62.5 mM EDTA (pH 8.0) with CompleteJ protease inhibitor cocktail (Boehringer Mannheim) (Triton lysis buffer). Lysates were boiled in reducing sample buffer, separated on 10% polyacrylamide gels using the NuPAGEJ Bis-Tris electrophoresis system (Novex). Nitrocellulose membranes were probed with antibodies against IκB-α, phosphorylated-IκB-α, (New England BioLabs), or anti-IL-18 (Santa Cruz Biotechnology) according to manufacturer's instructions, and visualized with enhanced chemiluminescence (Amersham).
Lysates were also prepared from untreated RAW 264.7 cells or cells treated with a phosphorothioate CpG oligonucleotide (4 μM) for 5, 10, 20 and 60 minutes as well as a control oligonucleotide lacking CpG motifs for 60 minutes. The lysates were then resolved by electrophoresis, and immunoblotted with antisera to phosphorylated IκBα and total IκBα. […] This activation was detected at the level of IκBα phosphorylation within 10 minutes of CpG oligonucleotide addition, and degradation of IκBα was notable at 20 minutes.

[8] = tested on: MyD88; experiment: κB-Luc assay in RAW 264.7 cells co-transfected with dominant-negative MyD88lpr; format: cell-based, mouse; settings: κB-Luc:MyD88lpr 10:1 or 1:1, oligonucleotides 4 μM, MPL 1 μg/ml, LPS 1 μg/ml
[9] = tested on: MyD88; experiment: κB luciferase assay of RAW 264.7 cells transfected with MyD88 dominant-negative constructs; format: cell-based, mouse; settings: FIG. 3B
Text: as §2

| Molecule | Phosphorylation of ERK, JNK and/or the JNK substrate c-jun, and of the p38 MAPK substrate ATF2 [1] | κB-dependent luciferase expression ([2]; 6 hours, LPS 1 μg/ml) | Effect of dominant negative MyD88 constructs (MyD88lpr, MyD88-ΔDD, MyD88-THD) on signaling to κB luciferase reporter [3] | Cell-surface CD86 expression on live CD11c positive cells [5] | Effect of dominant-negative MyD88lpr expression on induced κB-dependent luciferase activity [8] | further results |
| --- | --- | --- | --- | --- | --- | --- |
| tccaggacttctctcaggtt (TCCAGGACTTCTCTCAGGTT; DNA, all phosphorothioate, methylation of C not given here) [control oligonucleotide] | not | did not induce an increase | – | – | – | – |
| tccatgacgttcctgacgtt [CpG oligonucleotide] | observed in all three cell types | induced κB-dependent luciferase expression, to a level similar to that induced by MPL or LPS | specifically and selectively blocks signaling | an increase in CD86 expression similar to that observed in the wild-type BMDDC | inhibited | Cell-surface CD86 expression on live CD11c positive cells [4]: increased cell-surface CD86 expression; ERK phosphorylation [6]: not detected; Time at which IκBα phosphorylation was detected after addition [7]: ≤ 10 min; Time at which degradation of IκBα was notable [7]: 20 min; Effect of dominant negative MyD88 constructs (MyD88lpr, MyD88-ΔDD, MyD88-THD) on signaling to κB luciferase reporter [9]: specifically and selectively blocks signaling; κB-Luc activation at the lowest concentration tested ([2]; RAW 264.7, 0.05 μM, data not shown): not; Activation of the reporter gene at 10 μM dose relative to 8 μM ([2]; RAW 264.7, 10 μM, data not shown): not further enhanced; Concentration of maximal activation of the reporter gene ([2]; RAW 264.7, 6 hours, FIG. 1B): 8 µM; Lowest concentration at which κB-Luc activation was detected ([2]; RAW 264.7, 6 hours, FIG. 1B): 0.25 µM; Increase of κB-dependent luciferase expression by 2 hours ([2]; RAW 264.7, CpG oligonucleotide 4 μM, LPS 1 μg/ml, FIG. 1C): greater than two-fold increase |
| monophosphoiyl lipid A [MPL] | – | potent activators of NF-κB | – | no change in CD86 expression | inhibited | – |
| B1 | – | poor activator | did inhibit | – | – | – |
| B2 | – | poor activator | – | – | – | – |

Source: patent publication US20110306040A1, “CPG RECEPTOR (CPG-R) AND METHODS RELATING THERETO” (priority 1999, published 2011)
